In PubChem BioAssay AID248 (DTP/NCI, 2004):
Where “and” joins values, the source holds several entries; their conditions need not be identical. Identical values can stand only once. Inconclusive results and toxic doses are left out. Peptide text beside a SMILES is read from it. * marks the point of attachment. Cbz = O=C(OCc1ccccc1)*; Bn = c1ccc(C*)cc1

Test system: L1210 leukemia ip in BDF1 mice, survival T/C
Test: NCI In Vivo Anticancer Drug Screen. Data for tumor model L1210 Leukemia (intraperitoneal) in B6D2F1 (BDF1) mice
Conditions: endpoint: mean survival time, higher = longer survival
How it was run: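 Value reflects the ratio of survival in compound-treated mice to survival in vehicle-treated controls, with both groups carrying the same transplanted tumor.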

[1] = dose: 100.0 mg/kg/injection, schedule: Q01DX001 (ip), vehicle: carboxymethylcellulose (CMC)
[2] = dose: 100.0 mg/kg/injection, schedule: Q01DX009 (ip), vehicle: Klucel (hydroxypropylcellulose) (HPC)
[3] = dose: 100.0 mg/kg/injection, schedule: Q04DX003 (ip), vehicle: Klucel (hydroxypropylcellulose) (HPC)
[4] = dose: 400.0 mg/kg/injection, schedule: Q04DX003 (ip), vehicle: Klucel (hydroxypropylcellulose) (HPC)
[5] = dose: 25.0 mg/kg/injection, schedule: Q01DX009 (ip), vehicle: saline with Tween-80
[6] = dose: 50.0 mg/kg/injection, schedule: Q01DX009 (ip), vehicle: saline with Tween-80
[7] = dose: 100.0 mg/kg/injection, schedule: Q01DX009 (ip), vehicle: saline with Tween-80
[8] = dose: 100.0 mg/kg/injection, schedule: Q04DX003 (ip), vehicle: saline with Tween-80
[9] = dose: 200.0 mg/kg/injection, schedule: Q01DX009 (ip), vehicle: saline with Tween-80
[10] = dose: 400.0 mg/kg/injection, schedule: Q01DX009 (ip), vehicle: saline with Tween-80
[11] = dose: 200.0 mg/kg/injection, schedule: Q01DX009 (ip), vehicle: Klucel (hydroxypropylcellulose) (HPC)
[12] = dose: 400.0 mg/kg/injection, schedule: Q01DX009 (ip), vehicle: Klucel (hydroxypropylcellulose) (HPC)
[13] = dose: 100.0 mg/kg/injection, schedule: Q01DX005 (ip), vehicle: saline
[14] = dose: 200.0 mg/kg/injection, schedule: Q01DX005 (ip), vehicle: saline
[15] = dose: 200.0 mg/kg/injection, schedule: Q01DX001 (ip), vehicle: carboxymethylcellulose (CMC)
[16] = dose: 400.0 mg/kg/injection, schedule: Q01DX001 (ip), vehicle: carboxymethylcellulose (CMC)
[17] = dose: 100.0 mg/kg/injection, schedule: Q01DX001 (ip), vehicle: Klucel (hydroxypropylcellulose) (HPC)
[18] = dose: 100.0 mg/kg/injection, schedule: Q04DX002 (ip), vehicle: Klucel (hydroxypropylcellulose) (HPC)
[19] = dose: 200.0 mg/kg/injection, schedule: Q01DX001 (ip), vehicle: Klucel (hydroxypropylcellulose) (HPC)
[20] = dose: 200.0 mg/kg/injection, schedule: Q04DX002 (ip), vehicle: Klucel (hydroxypropylcellulose) (HPC)
[21] = dose: 200.0 mg/kg/injection, schedule: Q04DX003 (ip), vehicle: Klucel (hydroxypropylcellulose) (HPC)
[22] = dose: 100.0 mg/kg/injection, schedule: Q04DX003 (ip), vehicle: saline
[23] = dose: 200.0 mg/kg/injection, schedule: Q04DX003 (ip), vehicle: saline
[24] = dose: 400.0 mg/kg/injection, schedule: Q04DX003 (ip), vehicle: saline
[25] = dose: 50.0 mg/kg/injection, schedule: Q01DX001 (ip), vehicle: saline with Tween-80
[26] = dose: 100.0 mg/kg/injection, schedule: Q01DX009 (ip), vehicle: saline

SMILES: N#CC(C#N)=Cc1cccc([N+](=O)[O-])c1
- T/C (dose: 50.0 mg/kg/injection, schedule: Q01DX001 (ip), vehicle: carboxymethylcellulose (CMC)): 102 % of control
- T/C [1]: 102 % of control
- T/C [2]: 97 % of control
- T/C [3]: 102 % of control
- T/C [4]: 106 % of control

SMILES: CCC(CC)(c1ccccc1)C(O)c1ccccc1 (stereo not given)
- T/C (dose: 50.0 mg/kg/injection, schedule: Q01DX001 (ip), vehicle: saline): 97 % of control
- T/C (dose: 100.0 mg/kg/injection, schedule: Q01DX001 (ip), vehicle: saline): 97 % of control
- T/C (dose: 200.0 mg/kg/injection, schedule: Q01DX001 (ip), vehicle: saline): 103 % of control
- T/C (dose: 400.0 mg/kg/injection, schedule: Q01DX001 (ip), vehicle: saline): 101 % of control

SMILES: Clc1ccc(C=NCCN=Cc2ccc(Cl)c(Cl)c2)cc1Cl
- T/C [5]: 92 % of control
- T/C [6]: 90 % of control
- T/C [7]: 103 % of control
- T/C [8]: 91 % of control
- T/C [9]: 98 % of control
- T/C (dose: 200.0 mg/kg/injection, schedule: Q04DX003 (ip), vehicle: saline with Tween-80): 91 % of control
- T/C [10]: 101 % of control
- T/C (dose: 400.0 mg/kg/injection, schedule: Q04DX003 (ip), vehicle: saline with Tween-80): 95 % of control

SMILES: COC(=O)c1ccccc1NC(=O)Cc1ccccc1
- T/C [2]: 91 % of control
- T/C [11]: 98 % of control
- T/C [12]: 98 % of control

SMILES: CCCc1nc2c(=O)n(C3OC(CO)C(O)C3O)cnc2o1 (stereo not given)
- T/C [13]: 95 % of control
- T/C [14]: 91 % of control

SMILES: CCCCCCCCCCCCCCCCS(=O)(=O)N/N=C/c1ccc2c(c1)OCO2
- T/C [1]: 101 % of control
- T/C [15]: 98 % of control
- T/C [16]: 104 % of control

SMILES: COC(=O)c1cc(C2OCC3OC(C)(C)OC32)[nH]n1 (stereo not given)
- T/C [13]: 96 % of control
- T/C [14]: 100 % of control

SMILES: O=C(NCc1ccncc1)Nc1ccccc1F
- T/C [17]: 93 % of control
- T/C [2]: 100 % of control
- T/C [18]: 94 % of control and 103 % of control
- T/C [3]: 94 % of control
- T/C [19]: 104 % of control
- T/C [11]: 98 % of control and 105 % of control
- T/C [20]: 101 % of control and 91 % of control
- T/C [21]: 97 % of control

SMILES: COc1cccc(OC)c1CCCl
- T/C [22]: 95 % of control
- T/C [23]: 97 % of control
- T/C [24]: 110 % of control

SMILES: COC(=O)C1(COC(C)=O)CC1
- T/C [25]: 103 % of control
- T/C (dose: 100.0 mg/kg/injection, schedule: Q01DX001 (ip), vehicle: saline with Tween-80): 97 % of control
- T/C (dose: 200.0 mg/kg/injection, schedule: Q01DX001 (ip), vehicle: saline with Tween-80): 103 % of control

SMILES: CCOC(=O)C(CCC#N)(CCC(=O)OC)C(C)=O (stereo not given)
- T/C (dose: 100.0 mg/kg/injection, schedule: Q04DX002 (ip), vehicle: saline with Tween-80): 97 % of control
- T/C (dose: 200.0 mg/kg/injection, schedule: Q04DX002 (ip), vehicle: saline with Tween-80): 116 % of control
- T/C (dose: 400.0 mg/kg/injection, schedule: Q04DX002 (ip), vehicle: saline with Tween-80): 94 % of control

SMILES: CCCC(=O)OCC1OC(n2ccc(N)nc2=O)C(O)C1OC(=O)CCC (stereo not given)
- T/C (dose: 60.0 mg/kg/injection, schedule: Q01DX005 (ip), vehicle: Klucel (hydroxypropylcellulose) (HPC)): 183 % of control
- T/C (dose: 90.0 mg/kg/injection, schedule: Q01DX005 (ip), vehicle: Klucel (hydroxypropylcellulose) (HPC)): 152 % of control
- T/C (dose: 134.0 mg/kg/injection, schedule: Q01DX005 (ip), vehicle: Klucel (hydroxypropylcellulose) (HPC)): 158 % of control
- T/C (dose: 200.0 mg/kg/injection, schedule: Q01DX005 (ip), vehicle: Klucel (hydroxypropylcellulose) (HPC)): 162 % of control and 170 % of control

SMILES: CC(C)C(NC(=O)C(CSCc1ccccc1)NC(=O)OCc1ccccc1)C(N)=O (stereo not given) (Cbz-Cys(Bn)-Val-NH2; configuration not given here)
- T/C [2]: 87 % of control
- T/C [11]: 89 % of control

SMILES: CC(=O)OCC1CC2CC(O)C1C2 (stereo not given)
- T/C (dose: 75.0 mg/kg/injection, schedule: Q01DX001 (ip), vehicle: acetone): 102 % of control

SMILES: CC(C)(C)C1=CC(=O)C(Br)=C(N2C3C4CCC(C4)C32)C1=O (stereo not given)
- T/C [17]: 110 % of control
- T/C [19]: 96 % of control
- T/C (dose: 400.0 mg/kg/injection, schedule: Q01DX001 (ip), vehicle: Klucel (hydroxypropylcellulose) (HPC)): 94 % of control

SMILES: N#CCN(CC#N)CCCN(CC#N)CCCN(CC#N)CC#N
- T/C (dose: 12.5 mg/kg/injection, schedule: Q01DX001 (ip), vehicle: saline with Tween-80): 97 % of control
- T/C (dose: 25.0 mg/kg/injection, schedule: Q01DX001 (ip), vehicle: saline with Tween-80): 108 % of control
- T/C [25]: 102 % of control

SMILES: c1ccc([CH2][Sn]([c]2ccccc2)([c]2ccccc2)[c]2ccccc2)cc1
- T/C (dose: 50.0 mg/kg/injection, schedule: Q01DX009 (ip), vehicle: Klucel (hydroxypropylcellulose) (HPC)): 100 % of control
- T/C [2]: 104 % of control
- T/C [3]: 101 % of control
- T/C [11]: 98 % of control
- T/C [21]: 98 % of control
- T/C [4]: 101 % of control

SMILES: CCOC(=O)NC(NC(=O)OCC)c1ccc(Cl)c(Cl)c1
- T/C [1]: 98 % of control
- T/C [15]: 98 % of control
- T/C [16]: 93 % of control

SMILES: Cc1ccc(S(=O)(=O)Nc2cccc3cc(Cl)ccc23)cc1
- T/C (dose: 100.0 mg/kg/injection, schedule: Q04DX003 (ip), vehicle: acetone): 94 % of control
- T/C (dose: 200.0 mg/kg/injection, schedule: Q04DX003 (ip), vehicle: acetone): 105 % of control
- T/C (dose: 400.0 mg/kg/injection, schedule: Q04DX003 (ip), vehicle: acetone): 91 % of control

SMILES: CCOc1ccc(NC(=O)Nc2cccc(Cl)c2)cc1
- T/C [2]: 103 % of control
- T/C [3]: 95 % of control
- T/C [21]: 103 % of control
- T/C [12]: 87 % of control
- T/C [4]: 100 % of control

SMILES: O=C1CCCCCCCCCCCCCCO1
- T/C [18]: 96 % of control
- T/C [20]: 90 % of control
- T/C (dose: 400.0 mg/kg/injection, schedule: Q04DX002 (ip), vehicle: Klucel (hydroxypropylcellulose) (HPC)): 93 % of control

SMILES: Oc1ccc(Nc2ncnc3cc(Cl)ccc23)cc1CN(c1ccccc1)c1ccccc1
- T/C [22]: 102 % of control
- T/C [23]: 89 % of control

SMILES: O=C(O)/C=C\C(=O)NCCCNC(=O)/C=C\C(=O)O
- T/C [1]: 101 % of control
- T/C [15]: 96 % of control
- T/C [16]: 93 % of control

SMILES: S=C(S)N1CCN(C(=S)S)CC1
- T/C (dose: 25.0 mg/kg/injection, schedule: Q01DX009 (ip), vehicle: saline): 108 % of control
- T/C (dose: 50.0 mg/kg/injection, schedule: Q01DX009 (ip), vehicle: saline): 103 % of control
- T/C [26]: 92 % of control and 102 % of control
- T/C [22]: 99 % of control
- T/C [23]: 97 % of control

SMILES: Nc1nc(Nc2ccccc2)nc(C(=O)O)n1
- T/C [26]: 92 % of control
- T/C [22]: 110 % of control
- T/C (dose: 200.0 mg/kg/injection, schedule: Q01DX009 (ip), vehicle: saline): 106 % of control
- T/C [23]: 101 % of control
- T/C (dose: 400.0 mg/kg/injection, schedule: Q01DX009 (ip), vehicle: saline): 115 % of control
- T/C [24]: 106 % of control

SMILES: BrCC1CCCO1 (stereo not given)
- T/C [5]: 106 % of control
- T/C (dose: 25.0 mg/kg/injection, schedule: Q04DX003 (ip), vehicle: saline with Tween-80): 102 % of control
- T/C [6]: 90 % of control
- T/C (dose: 50.0 mg/kg/injection, schedule: Q04DX003 (ip), vehicle: saline with Tween-80): 101 % of control
- T/C [7]: 89 % of control
- T/C [8]: 101 % of control

SMILES: NC(=O)OCC(N)C(=O)O (stereo not given)
- T/C (dose: 75.0 mg/kg/injection, schedule: Q01DX001 (ip), vehicle: saline): 96 % of control
- T/C [7]: 89 % of control
- T/C (dose: 150.0 mg/kg/injection, schedule: Q01DX001 (ip), vehicle: saline): 94 % of control
- T/C [9]: 87 % of control
- T/C (dose: 300.0 mg/kg/injection, schedule: Q01DX001 (ip), vehicle: saline): 100 % of control
- T/C [10]: 90 % of control
